The values below come from PubChem BioAssay AID1745844 (Carcinogenic Potency Database (CPDB), 2022).

Calls of active or inactive are those of the source. No rule for the calls is given here.

This data set relates to rodent lifetime carcinogenesis bioassay, tumor incidence TD50. The experiment in a line: carcinogenic potency in animals, long-term in vivo studies, CPDB compilation (AID 1745844).

What is called TD50 is the dose at which the toxic effect under study appears in half of the subjects. On to `Clc1cc2c(cc1Cl)Oc1cc(Cl)c(Cl)cc1O2`, for which the TD50 is 0.000709 mg/kg/day (mouse, strain B6C3F1, females, by gavage, site: all sites, lesion: leukemia + lymphoma, dosed 104 weeks, study length 104 weeks); 0.000705 mg/kg/day (mouse, strain B6C3F1, females, by gavage, site: all sites, lesion: lymphoma, histiocytic type, dosed 104 weeks, study length 104 weeks); 0.000682 mg/kg/day (mouse, strain B6C3F1, females, by gavage, site: all sites, lesion: lymphoma, dosed 104 weeks, study length 104 weeks); 0.000494 mg/kg/day (mouse, strain B6C3F1, females, by gavage, site: any site (literature study), lesion: several types, types named in the paper, dosed 104 weeks, study length 104 weeks); 0.000526 mg/kg/day (mouse, strain B6C3F1, females, by gavage, site: liver + thyroid gland, lesion: hepatocellular adenoma + hepatocellular carcinoma + follicular-cell adenoma, dosed 104 weeks, study length 104 weeks); 0.000756 mg/kg/day (mouse, strain B6C3F1, females, by gavage, site: liver, lesion: hepatocellular adenoma + hepatocellular carcinoma + neoplastic nodule, dosed 104 weeks, study length 104 weeks). Also, the TD50 reads like this: (mouse, strain B6C3F1, females, by gavage, site: liver, lesion: hepatocellular adenoma + hepatocellular carcinoma, dosed 104 weeks, study length 104 weeks) 0.000756 mg/kg/day; (mouse, strain B6C3F1, females, by gavage, site: liver, lesion: hepatocellular carcinoma, dosed 104 weeks, study length 104 weeks) 0.0013 mg/kg/day; (mouse, strain B6C3F1, females, by gavage, site: subcutaneous tissue, lesion: fibrosarcoma, dosed 104 weeks, study length 104 weeks) 0.00172 mg/kg/day; (mouse, strain B6C3F1, females, by gavage, site: thyroid gland, lesion: follicular-cell adenoma, dosed 104 weeks, study length 104 weeks) 0.00159 mg/kg/day; (mouse, strain B6C3F1, males, by gavage, site: any site (literature study), lesion: several types, types named in the paper, dosed 104 weeks, study length 104 weeks) 0.000141 mg/kg/day; (mouse, strain B6C3F1, males, by gavage, site: liver, lesion: hepatocellular adenoma + hepatocellular carcinoma + neoplastic nodule, dosed 104 weeks, study length 104 weeks) 8.68e-05 mg/kg/day. In addition, the TD50 (mouse, strain B6C3F1, males, by gavage, site: liver, lesion: hepatocellular adenoma + hepatocellular carcinoma, dosed 104 weeks, study length 104 weeks) is 8.68e-05 mg/kg/day; the TD50 (mouse, strain B6C3F1, males, by gavage, site: liver, lesion: hepatocellular adenoma, dosed 104 weeks, study length 104 weeks) is 0.000271 mg/kg/day; the TD50 (mouse, strain B6C3F1, males, by gavage, site: liver, lesion: hepatocellular carcinoma, dosed 104 weeks, study length 104 weeks) is 0.000147 mg/kg/day; the TD50 (mouse, strain B6C3F1, males, by gavage, site: lung, lesion: alveolar/bronchiolar adenoma + alveolar/bronchiolar carcinoma, dosed 104 weeks, study length 104 weeks) was found to be 0.000198 mg/kg/day; the TD50 (mouse, strain B6C3F1, males, by gavage, site: lung, lesion: alveolar/bronchiolar adenoma, dosed 104 weeks, study length 104 weeks) was 0.000219 mg/kg/day; the TD50 (rat, strain Osborne-Mendel, females, by gavage, site: any site (literature study), lesion: several types, types named in the paper, dosed 104 weeks, study length 105 weeks) came out at 0.00158 mg/kg/day. The TD50 is, setting by setting: (rat, strain Osborne-Mendel, females, by gavage, site: liver, lesion: hepatocellular adenoma + hepatocellular carcinoma + neoplastic nodule, dosed 104 weeks, study length 105 weeks) 0.000127 mg/kg/day; (rat, strain Osborne-Mendel, females, by gavage, site: liver, lesion: hepatocellular carcinoma + neoplastic nodule, dosed 104 weeks, study length 105 weeks) 0.000127 mg/kg/day; (rat, strain Osborne-Mendel, females, by gavage, site: liver, lesion: neoplastic nodule, dosed 104 weeks, study length 105 weeks) 0.000154 mg/kg/day; (rat, strain Osborne-Mendel, males, by gavage, site: adrenal gland, lesion: cortical adenoma, dosed 104 weeks, study length 105 weeks) 1.21e-05 mg/kg/day; (rat, strain Osborne-Mendel, males, by gavage, site: any site (literature study), lesion: several types, types named in the paper, dosed 104 weeks, study length 105 weeks) 0.000133 mg/kg/day; (rat, strain Osborne-Mendel, males, by gavage, site: liver, lesion: hepatocellular adenoma + hepatocellular carcinoma + neoplastic nodule, dosed 104 weeks, study length 105 weeks) 0.000391 mg/kg/day. Besides, the TD50 is 0.000391 mg/kg/day (rat, strain Osborne-Mendel, males, by gavage, site: liver, lesion: hepatocellular carcinoma + neoplastic nodule, dosed 104 weeks, study length 105 weeks); 0.000391 mg/kg/day (rat, strain Osborne-Mendel, males, by gavage, site: liver, lesion: neoplastic nodule, dosed 104 weeks, study length 105 weeks); 0.000169 mg/kg/day (rat, strain Osborne-Mendel, males, by gavage, site: subcutaneous tissue, lesion: fibroma, dosed 104 weeks, study length 105 weeks); 0.000101 mg/kg/day (rat, strain Osborne-Mendel, males, by gavage, site: thyroid gland, lesion: follicular-cell adenoma + follicular-cell carcinoma, dosed 104 weeks, study length 105 weeks); 0.000113 mg/kg/day (rat, strain Osborne-Mendel, males, by gavage, site: thyroid gland, lesion: follicular-cell adenoma, dosed 104 weeks, study length 105 weeks); 0.000205 mg/kg/day (rat, strain Sprague-Dawley Spartan, females, in feed, site: hard palate/nasal turbinates, lesion: squamous-cell carcinoma, stratified, dosed 103 weeks, study length 103 weeks). For the same compound, the TD50 (rat, strain Sprague-Dawley Spartan, females, in feed, site: liver, lesion: hepatocellular carcinoma, dosed 103 weeks, study length 103 weeks) was 6.51e-05 mg/kg/day; the TD50 (rat, strain Sprague-Dawley Spartan, females, in feed, site: liver, lesion: hepatocellular hyperplastic nodule, dosed 103 weeks, study length 103 weeks) is 6.67e-06 mg/kg/day; the TD50 (rat, strain Sprague-Dawley Spartan, females, in feed, site: liver, lesion: several types, types named in the paper, dosed 103 weeks, study length 103 weeks) is 1.49e-05 mg/kg/day; the TD50 (rat, strain Sprague-Dawley Spartan, females, in feed, site: lung, lesion: squamous-cell carcinoma, keratinized, dosed 103 weeks, study length 103 weeks) is 0.000192 mg/kg/day; the TD50 (rat, strain Sprague-Dawley Spartan, males, in feed, site: adrenal gland, lesion: cortical adenoma, dosed 103 weeks, study length 103 weeks) amounted to 0.000217 mg/kg/day; the TD50 (rat, strain Sprague-Dawley Spartan, males, in feed, site: hard palate/nasal turbinates, lesion: squamous-cell carcinoma, stratified, dosed 103 weeks, study length 103 weeks) was 0.000393 mg/kg/day. Also, the TD50 is 0.000628 mg/kg/day (rat, strain Sprague-Dawley Spartan, males, in feed, site: tongue, lesion: squamous-cell carcinoma, stratified, dosed 103 weeks, study length 103 weeks); 8.31e-05 mg/kg/day (rat, strain Sprague-Dawley, males, in feed, site: liver, lesion: several types, types named in the paper, dosed 78 weeks, study length 95 weeks); 7.96e-05 mg/kg/day (rat, strain Sprague-Dawley, males, in feed, site: lung, lesion: squamous-cell tumor, dosed 78 weeks, study length 95 weeks). Besides, the carcinogen call (mouse, strain Swiss/H/Riop, males, by gavage, site: liver, lesion: several types, types named in the paper, dosed 52 weeks, study length 104 weeks) was “positive” and the carcinogen call (mouse, strain Swiss/H/Riop, males, by gavage, site: lung, lesion: one or several types, types not named, dosed 52 weeks, study length 104 weeks) was “negative (inactive)”.

As for `O=NN1CC(=O)NC1=O`, the TD50 reads like this: (rat, strain MRC-Wistar, females, in drinking water, site: any site (literature study), lesion: several types, types named in the paper, dosed 52 weeks, study length 110 weeks) 19.6 mg/kg/day; (rat, strain MRC-Wistar, males, in drinking water, site: any site (literature study), lesion: several types, types named in the paper, dosed 52 weeks, study length 110 weeks) 7.31 mg/kg/day; (rat, strain MRC-Wistar, males, in drinking water, site: forestomach, lesion: squamous-cell papilloma, dosed 52 weeks, study length 110 weeks) 27.8 mg/kg/day; (rat, strain MRC-Wistar, males, in drinking water, site: pharynx, lesion: squamous-cell carcinoma, dosed 52 weeks, study length 110 weeks) 43.8 mg/kg/day.

Consider `CCCCCC`, for which the TD50 runs as follows: (mouse, strain B6C3F1, females, inhaled, site: liver, lesion: hepatocellular carcinoma, dosed 105 weeks, study length 105 weeks) 84800 mg/kg/day; (mouse, strain B6C3F1, females, inhaled, site: liver, lesion: several types, types named in the paper, dosed 105 weeks, study length 105 weeks) 30300 mg/kg/day; (mouse, strain B6C3F1, females, inhaled, site: pituitary gland, lesion: adenoma, dosed 105 weeks, study length 105 weeks) 10300 mg/kg/day; (mouse, strain B6C3F1, females, inhaled, site: pituitary gland, lesion: several types, types named in the paper, dosed 105 weeks, study length 105 weeks) 9460 mg/kg/day. Besides, the carcinogen call by setting is: (mouse, strain B6C3F1, males, inhaled, site: liver, lesion: several types, types named in the paper, dosed 105 weeks, study length 105 weeks) “negative (inactive)”; (rat, strain Fischer 344, females, inhaled, site: nasal mucosa, lesion: one or several types, types not named, dosed 105 weeks, study length 105 weeks) “negative (inactive)”; (rat, strain Fischer 344, males, inhaled, site: nasal mucosa, lesion: one or several types, types not named, dosed 105 weeks, study length 105 weeks) “negative (inactive)”.

In turn, `CN=C(N)N` returned a TD50 (rat, strain Wistar, males, in feed, site: liver, lesion: hemangioma, dosed 68 weeks, study length 68 weeks) of 84 mg/kg/day.

In the case of `CCCCCCCCCCCC[N+](C)(C)[O-]`, the carcinogen call (rat, strain Fischer 344, females, in drinking water, site: liver, lesion: neoplastic nodule, dosed 93 weeks, study length 128 weeks) is “negative (inactive)”. In addition, the TD50 by setting is: (rat, strain Fischer 344, males, in drinking water, site: liver, lesion: hepatocellular carcinoma, dosed 93 weeks, study length 128 weeks) 519 mg/kg/day (inactive); (rat, strain Fischer 344, males, in drinking water, site: liver, lesion: neoplastic nodule, dosed 93 weeks, study length 128 weeks) 496 mg/kg/day (inactive); (rat, strain Fischer 344, males, in drinking water, site: liver, lesion: several types, types named in the paper, dosed 93 weeks, study length 128 weeks) 231 mg/kg/day (inactive).

`Cl`: the TD50 runs as follows: (rat, strain Fischer 344, males, in feed, site: adrenal medulla, lesion: pheochromocytoma, dosed 104 weeks, study length 104 weeks) 6210 mg/kg/day (inactive); (rat, strain Fischer 344, males, in feed, site: mammary gland, lesion: fibroadenoma, dosed 104 weeks, study length 104 weeks) 33500 mg/kg/day (inactive); (rat, strain Wistar-random, females, in feed, site: urinary bladder, lesion: transitional-cell papilloma, dosed 130 weeks, study length 130 weeks) 79500 mg/kg/day. For the same compound, the carcinogen call (rat, strain Sprague-Dawley, males, inhaled, site: liver, lesion: hepatocellular carcinoma, dosed 128 weeks, study length 128 weeks) was “negative (inactive)” and the carcinogen call (rat, strain Sprague-Dawley, males, inhaled, site: nasal mucosa, lesion: one or several types, types not named, dosed 128 weeks, study length 128 weeks) is “negative (inactive)”.
